Holding throughout (assay type): cell-based
One data set concerns Bacillus subtilis. The experiment in a line: microbe, parasite or virus in culture. The settings on record: read-out: MIC against Bacillus subtilis. As to the method:
Bacillus subtilis, Candida albicans and Stachybotrys chartarum (ATCC) were grown in tryptic soy broth at 37° C., yeast mold broth at 24° C. and tryptic soy broth at 26° C., respectively. The MICs of the peptides or peptide nanoparticles were measured using a broth microdilution method. Briefly, 50 μL of peptide and peptide nanoparticle solutions with a concentration of 7.1 to 142 μM was placed into each well of 96-well plates. 50 μL of microorganism solution was added to each well to give an optical density reading of 0.1 to 0.2 at 600 nm. […] Broth containing cells alone was used as control. The tests were repeated three times.

A further data set relates to Candida albicans. The following applies: broth microdilution, no growth observed. As to the method:
(§1) Bacillus subtilis, Candida albicans and Stachybotrys chartarum (ATCC) were grown in tryptic soy broth at 37° C., yeast mold broth at 24° C. and tryptic soy broth at 26° C., respectively. The MICs of the peptides or peptide nanoparticles were measured using a broth microdilution method. Briefly, 50 μL of peptide and peptide nanoparticle solutions with a concentration of 7.1 to 142 μM was placed into each well of 96-well plates. 50 μL of microorganism solution was added to each well to give an optical density reading of 0.1 to 0.2 at 600 nm. The cell cultures were then incubated for 15, 12/16 and 170 hours for Bacillus subtilis, Candida albicans and Stachybotrys chartarum respectively, and the MIC was taken at the concentration at which no growth was observed. Broth containing cells alone was used as control. The tests were repeated three times.

In another data set the test system is Stachybotrys chartarum. The experiment in a line: microbe, parasite or virus in culture. The settings on record: broth microdilution, no growth observed, read-out: MIC against Stachybotrys chartarum. The protocol:
as §1

The next data set has as its system rat red blood cells. The experiment in a line: Hemolysis assay. The following applies: at concentrations lower than its MIC. As to the method: Fresh rat red blood cells were washed with PBS for three times. 100 μL of red blood cells suspended in PBS (4% in volume) was placed in each well of 96-well plates and 100 μL of peptide nanoparticle or amphotericin B solution was added to each well. The plates were incubated for one hour at 37° C. The cell suspensions were taken out and centrifuged at 1000 g for 5 minutes. Aliquots (100 μL) of supernatant were transferred to 96-well plates, and hemoglobin release was monitored at 576 nm using a microplate reader (Bio-Teck Instruments, Inc). Percentage of hemolysis was calculated using the following formula: Hemolysis (%)=[(O.D.576 nm in the nanoparticle solution−O.D.576 nm in PBS)/(O.D.576 nm in 0.1% Triton X-100−O.D.576 nm in PBS)]×100. In vivo studies.

Setting [1] is: broth microdilution, no growth observed.

These results are taken from US20110223202A1, “CATIONIC CORE-SHELL PEPTIDE NONOPARTICLES” (priority 2007, published 2011).

Converted amounts (≈) assume the structure as drawn. Where two headings read alike, the source gives them in different places. No end group written: not given here. Where only a bound is given, the exact number is not on record here.

On to `N=C(N)NCCC[C@H](NC(=O)[C@H](CCCNC(=N)N)NC(=O)[C@H](CCCNC(=N)N)NC(=O)[C@H](CCCNC(=N)N)NC(=O)[C@H](CCCNC(=N)N)NC(=O)[C@H](CCCNC(=N)N)NC(=O)[C@H](CCCNC(=N)N)NC(=O)[C@H](CCCNC(=N)N)NC(=O)[C@H](CCCNC(=N)N)NC(=O)[C@H](CCCNC(=N)N)NC(=O)[C@H](CCCNC(=N)N)NC(=O)[C@H](CCCNC(=N)N)NC(=O)CNC(=O)CNC(=O)CN)C(N)=O` [G3R12], for which the MIC in the data set with Bacillus subtilis (setting [1]) was 242.0 µM (≈ 499 µg/mL). Besides, the “MIC against Candida albicans” value in the data set with Candida albicans is 242.0 µM (≈ 499 µg/mL).
Take “GGGRRRRRR-NH2 (C-terminus assumed) [G3R6]”: the MIC in the data set on Bacillus subtilis (setting [1]) is over 444.4 µM. The “MIC against Candida albicans” value against Candida albicans is over 444.4 µM.
Take `OC(Cn1cncn1)(Cn1cncn1)c1ccc(F)cc1F` [fluconazole]: the MIC with Stachybotrys chartarum (Stachybotrys chartarum) is over 817 µM.
Turning to `C[C@@H]1[C@H](O)[C@@H](C)/C=C/C=C/C=C/C=C/C=C/C=C/C=C/[C@H](O[C@@H]2O[C@H](C)[C@@H](O)[C@H](N)[C@@H]2O)C[C@@H]2O[C@](O)(C[C@@H](O)C[C@@H](O)[C@H](O)CC[C@@H](O)C[C@@H](O)CC(=O)O[C@H]1C)C[C@H](O)[C@H]2C(=O)O` [amphotericin B], the MIC in the data set with Stachybotrys chartarum is listed as over 54.0 µM. In addition, the hemolysis result in the data set on rat red blood cells is reported as “more than 90%”.
`C[C@H]1c2cccc(O)c2C(=O)C2=C(O)[C@]3(O)C(=O)C(C(N)=O)=C(O)[C@@H](N(C)C)[C@@H]3[C@@H](O)[C@@H]21` [doxycycline]: the MIC in the data set on Bacillus subtilis (Bacillus subtilis, FIG. 12, 16 hours of incubation) turned out to be 13.5 µM (≈ 6 µg/mL).
Regarding `CC1(C)S[C@@H]2[C@H](NC(=O)Cc3ccccc3)C(=O)N2[C@H]1C(=O)O` [penicillin G], in the data set with Bacillus subtilis (FIG. 12, 16 hours of incubation), the MIC stood at 1074 µM (≈ 359 µg/mL).
Regarding GGGRRRRRRYGRKKRRQRRR-NH2 [G3R6TAT], in the data set on Bacillus subtilis (setting [1]), the MIC is reported as 75.0 µM. The “MIC against Candida albicans” value in the data set with Candida albicans was 75.0 µM.
As to `N=C(N)NCCC[C@H](NC(=O)[C@H](CCCNC(=N)N)NC(=O)[C@H](CCCNC(=N)N)NC(=O)[C@H](CCC(N)=O)NC(=O)[C@H](CCCNC(=N)N)NC(=O)[C@H](CCCNC(=N)N)NC(=O)[C@H](CCCCN)NC(=O)[C@H](CCCCN)NC(=O)[C@H](CCCNC(=N)N)NC(=O)CNC(=O)[C@H](Cc1ccc(O)cc1)NC(=O)CNC(=O)CNC(=O)CN)C(N)=O` [G3TAT], in the data set on Bacillus subtilis (setting [1]), the MIC was 290.0 µM (≈ 502 µg/mL). In the data set with Candida albicans, the “MIC against Candida albicans” value was determined as 289.0 µM (≈ 500 µg/mL).
